Each block holds one molecule with its values, some of them ahead of it. Calls of active or inactive are those of the source. The rule behind the calls is not given here.
How the values were obtained:
HCT-116 [1] = assay: Cytotoxicity against human HCT116 cells assessed as reduction in cell viability incubated for 4 hrs followed by LED light array irradiation followed by further incubation for 24 hrs by MTT assay; format: functional, cell-based
A-375 [2] = assay: Cytotoxicity against human A375 cells assessed as reduction in cell viability incubated for 4 hrs followed by LED light array irradiation followed by further incubation for 24 hrs by MTT assay; format: functional, cell-based
HeLa [3] = assay: Cytotoxicity against human HeLa cells assessed as cell viability at 10 to 1000 uM incubated for 4 hrs followed by LED light array irradiation followed by further incubation for 24 hrs by MTT assay; format: functional, cell-based
A549 [4] = assay: Cytotoxicity against human A549 cells assessed as reduction in cell viability incubated for 4 hrs followed by LED light array irradiation followed by further incubation for 24 hrs by MTT assay; format: functional, cell-based
[5] = Prodrug activation in human HeLa cells assessed as increase in GSH-mediated PpIX production at 100 uM incubated for 4 hrs by fluorescence imaging analysis; format: cell-based
[6] = Prodrug activation in human HeLa cells assessed as GSH-mediated PpIX production at 10 to 1000 uM incubated for 4 hrs by fluorescence based assay; format: cell-based
HeLa [7] = assay: Cytotoxicity against human HeLa cells assessed as cell viability at 10 to 1000 uM incubated for 4 hrs measured under dark conditions by MTT assay; format: cell-based
[8] = Prodrug activation in human HeLa cells assessed as increase in GSH-mediated PpIX production at 100 uM incubated for 4 hrs by fluorescence based assay relative to 5-ALA-OMe; format: cell-based
[9] = Prodrug activation in human HCT116 cells assessed as increase in GSH-mediated PpIX production at 100 uM incubated for 4 hrs by fluorescence based assay relative to 5-ALA; format: cell-based; details: hct-116, 4 h
[10] = Prodrug activation in human A549 cells assessed as increase in GSH-mediated PpIX production at 500 to 1000 uM incubated for 4 hrs by fluorescence based assay; format: cell-based; details: a549, 4 h
HeLa [11] = assay: Cytotoxicity against human HeLa cells assessed as reduction in cell viability at 10 to 300 uM incubated for 4 hrs measured under dark conditions by MTT assay; format: cell-based
[12] = Chemical stability of the compound in buffer at 1 M at pH 4 to 9 measured after 24 hrs by HPLC analysis; format: physicochemical; details: pH 4, 24 h
[13] = Prodrug activation in human HeLa cells assessed as increase in GSH-mediated PpIX production at 10 to 300 uM incubated for 4 hrs by fluorescence based assay; format: cell-based
A-375 [14] = assay: Photosensitization activity against human A375 cells assessed as cell viability at 100 uM incubated for 4 hrs followed by LED light array irradiation followed by further incubation for 24 hrs by MTT assay; format: functional; details: A-375, light or radiation study, read-out: Activity
HeLa [15] = assay: Cytotoxicity against human HeLa cells assessed as reduction in cell viability at 300 to 1000 uM incubated for 4 hrs measured under dark conditions by MTT assay; format: cell-based
[16] = Chemical stability of the compound in buffer at 1M at pH 9 by HPLC analysis; format: physicochemical
HCT-116 [17] = assay: Cytotoxicity against human HCT116 cells assessed as reduction in cell viability at 500 to 1000 uM incubated for 4 hrs measured under dark conditions by MTT assay; format: cell-based; details: hct-116, 4 h
[18] = Prodrug activation in human HeLa cells assessed as increase in GSH-mediated PpIX production at 100 uM incubated for 4 hrs pretreated for 1 hr with 1 mM intracellular GSH depletor, DEM by fluorescence imaging analysis; format: cell-based
[19] = Prodrug activation in human HeLa cells assessed as increase in GSH-mediated PpIX production at 300 to 1000 uM incubated for 4 hrs by fluorescence based assay; format: cell-based
[20] = Prodrug activation in human A549 cells assessed as increase in GSH-mediated PpIX production at 100 uM incubated for 4 hrs by fluorescence based assay relative to 5-ALA; format: cell-based; details: a549, 4 h
[21] = Prodrug activation in human A375 cells assessed as increase in GSH-mediated PpIX production at 100 to 300 uM incubated for 4 hrs by fluorescence based assay; format: cell-based; details: a-375, 4 h
[22] = Prodrug activation in human HCT116 cells assessed as increase in GSH-mediated PpIX production at 100 to 300 uM incubated for 4 hrs by fluorescence based assay; format: cell-based; details: hct-116, 4 h
[23] = n-octanol/water partition coefficient, log P of the compound at 1M incubated for 0.5 hrs by HPLC analysis; format: physicochemical
HCT-116 [24] = assay: Photosensitization activity against human HCT116 cells assessed as cell viability at 100 uM incubated for 4 hrs followed by LED light array irradiation followed by further incubation for 24 hrs by MTT assay; format: functional; details: HCT-116, light or radiation study, read-out: Activity
[25] = Prodrug activation in human HCT116 cells assessed as increase in GSH-mediated PpIX production at 500 to 1000 uM incubated for 4 hrs by fluorescence based assay; format: cell-based; details: hct-116, 4 h
HeLa [26] = assay: Photosensitization activity against human HeLa cells assessed as reduction in cell viability incubated for 4 hrs followed by LED light array irradiation followed by further incubation for 24 hrs by MTT assay; format: functional, cell-based; details: light or radiation study
[27] = Prodrug activation in human A375 cells assessed as increase in GSH-mediated PpIX production at 500 to 1000 uM incubated for 4 hrs by fluorescence based assay; format: cell-based; details: a-375, 4 h
[28] = Prodrug activation in human A375 cells assessed as increase in GSH-mediated PpIX production at 100 uM incubated for 4 hrs by fluorescence based assay relative to 5-ALA; format: cell-based; details: a-375, 4 h
[29] = Prodrug activation in PBS buffer assessed as GSH-mediated cleaved product C-SA formation at 0.5 mM incubated for 1 hr measured at 37 degC and pH 7.4 in presence of 10 mM GSH by ESI-MS spectrometry; details: pH 7.4, 1 h, 500 µM
HeLa [30] = assay: Potency index, ratio of 5-ALA IC50 to compound IC50 for photosensitization activity against human HeLa cells by MTT assay; format: functional
A-375 [31] = assay: Cytotoxicity against human A375 cells assessed as reduction in cell viability at 500 to 1000 uM incubated for 4 hrs measured under dark conditions by MTT assay; format: cell-based; details: a-375, 4 h
HeLa [32] = assay: Potency index, ratio of 5-ALA-OMe IC50 to compound IC50 for photosensitization activity against human HeLa cells by MTT assay; format: functional
[33] = Chemical stability of the compound in buffer at 1M at pH 7.4 by HPLC analysis; format: physicochemical
HeLa [34] = assay: Photosensitization activity against human HeLa cells assessed as cell viability at 100 uM incubated for 4 hrs followed by LED light array irradiation followed by further incubation for 24 hrs by MTT assay; format: functional
[35] = Prodrug activation in human HCT116 cells assessed as increase in GSH-mediated PpIX production at 100 uM incubated for 4 hrs by fluorescence based assay relative to 5-ALA-OMe; format: cell-based; details: hct-116, 4 h
[36] = Chemical stability of the compound in buffer at 1M at pH 4 by HPLC analysis; format: physicochemical
[37] = Prodrug activation in human A549 cells assessed as increase in GSH-mediated PpIX production at 100 to 300 uM incubated for 4 hrs by fluorescence based assay; format: cell-based; details: a549, 4 h
A549 [38] = assay: Cytotoxicity against human A549 cells assessed as reduction in cell viability at 500 to 1000 uM incubated for 4 hrs measured under dark conditions by MTT assay; format: cell-based; details: a549, 4 h
A549 [39] = assay: Photosensitization activity against human A549 cells assessed as cell viability at 100 uM incubated for 4 hrs followed by LED light array irradiation followed by further incubation for 24 hrs by MTT assay; format: functional; details: A549, light or radiation study, read-out: Activity
[40] = Prodrug activation in human A549 cells assessed as increase in GSH-mediated PpIX production at 100 uM incubated for 4 hrs by fluorescence based assay relative to 5-ALA-OMe; format: cell-based; details: a549, 4 h
[41] = Prodrug activation in human A375 cells assessed as increase in GSH-mediated PpIX production at 100 uM incubated for 4 hrs by fluorescence based assay relative to 5-ALA-OMe; format: cell-based; details: a-375, 4 h
[42] = Prodrug activation in human HeLa cells assessed as increase in GSH-mediated PpIX production at 100 uM incubated for 4 hrs by fluorescence based assay relative to 5-ALA; format: cell-based
[43] = Prodrug activation in human HeLa cells assessed as increase in GSH-mediated PpIX production at 1000 uM incubated for 4 hrs by fluorescence based assay; format: cell-based
[44] = Prodrug activation in human HeLa cells assessed as increase in GSH-mediated PpIX production at 300 uM incubated for 4 hrs by fluorescence based assay; format: cell-based

- Drug metabolism [5]: Metabolite_Notdetected
- Drug metabolism [6]: Metabolite_Notdetected
Compound: COC(=O)CCC(=O)CNC(=O)OCCCCCCOC(=O)NCC(=O)CCC(=O)OC
- inhibition (HCT-116 [1]): inactive
- inhibition (A-375 [2]): inactive
- inhibition (HeLa [3]): inactive
- inhibition (A549 [4]): inactive
- Activity (HeLa [7]): Non-Toxic

- fold change (FC) [8]: 70
- fold change (FC) [9]: 3 to 40
- Drug metabolism [10]: Metabolite_Detected
- Stability [12]: Stable
- Drug metabolism [13]: Metabolite_Detected
- Stability [16]: Stable
- Drug metabolism [18]: Metabolite_Detected
- Drug metabolism [19]: Metabolite_Detected
- fold change (FC) [20]: 3 to 40
- Drug metabolism [21]: Metabolite_Detected
- Drug metabolism [22]: Metabolite_Detected
- logP at 0.5 h [23]: 0.84
- Drug metabolism [25]: Metabolite_Detected
- Drug metabolism [27]: Metabolite_Detected
- fold change (FC) [28]: 3 to 40
- Drug metabolism [29]: Metabolite_Detected
- Drug metabolism [5]: Metabolite_Detected
- Stability [33]: Stable
- fold change (FC) [35]: 28
- Stability [36]: Stable
- Drug metabolism [37]: Metabolite_Detected
- fold change (FC) [40]: 84
- fold change (FC) [41]: 43
- fold change (FC) [42]: 20
Compound: COC(=O)CCC(=O)CNC(=O)OCCSSCCOC(=O)NCC(=O)CCC(=O)OC
- Activity (HeLa [11]): Toxic
- viability at 100 µM (A-375 [14]): 14%
- Activity (HeLa [15]): Toxic
- Activity (HCT-116 [17]): Toxic
- viability at 100 µM (HCT-116 [24]): 13%
- IC50 (HeLa [26]): 62 µM
- Ratio IC50 (HeLa [30]): 4
- Activity (A-375 [31]): Toxic
- Ratio IC50 (HeLa [32]): 12
- viability at 100 µM (HeLa [34]; light or radiation study, read-out: Activity): 30%
- Activity (A549 [38]): Toxic
- viability at 100 µM (A549 [39]): 16%

- Drug metabolism [13]: Metabolite_Detected
- Stability [16]: Unstable
- Drug metabolism [21]: Metabolite_Detected
- Drug metabolism [22]: Metabolite_Detected
- logP at 0.5 h [23]: -0.94
- Drug metabolism [43]: Metabolite_Detected
- Drug metabolism [5]: Metabolite_Notdetected
- Stability [33]: Unstable
- Stability [36]: Stable
- Drug metabolism [37]: Metabolite_Detected
Compound: COC(=O)CCC(=O)CN [METHYL AMINOLEVULINATE]
- viability at 100 µM (A-375 [14]): > 80%
- viability at 100 µM (HCT-116 [24]): > 80%
- IC50 (HeLa [26]): 763 µM
- Activity (HeLa [34]): inactive
- viability at 100 µM (A549 [39]): > 80%
- Activity (HeLa [7]): Non-Toxic

- Drug metabolism [13]: Metabolite_Detected
- Stability [16]: Unstable
- Drug metabolism [21]: Metabolite_Detected
- Drug metabolism [22]: Metabolite_Detected
- logP at 0.5 h [23]: -1.52
- Drug metabolism [5]: Metabolite_Notdetected
- Stability [33]: Unstable
- Drug metabolism [44]: Metabolite_Detected
- Stability [36]: Stable
- Drug metabolism [37]: Metabolite_Detected
Compound: NCC(=O)CCC(=O)O [AMINOLEVULINIC ACID]
- viability at 100 µM (A-375 [14]): 60%
- viability at 100 µM (HCT-116 [24]): > 80%
- IC50 (HeLa [26]): 230 µM
- Activity (HeLa [34]): inactive
- viability at 100 µM (A549 [39]): > 80%
- Activity (HeLa [7]): Non-Toxic
